According to patent US20240067685A1, “HIDDEN ANTIBIOTICS IN THE HUMAN PROTEOME” (priority 2022, published 2024):
≈ marks a conversion by molar mass, not a printed value. Where “and” joins values, the source holds several entries; their conditions need not be identical. Identical values can stand only once. Like-named read-outs stand apart in the source and are kept apart here. Non-standard residues stand in square brackets, D forms with d. Residues, ends and D or L forms follow the SMILES beside them. No end group written: not given here.

What was measured:
S. aureus MRSA (WKZ-2) = tested on: S. aureus MRSA (WKZ-2)
Method: (§1) Antimicrobial activity. The antimicrobial activity of ApoB-derived encrypted peptides was assessed against a panel of skin pathogens, such as S. epidermidis ATCC 35984, S. aureus ATCC 12600, A. baumannii ATCC 17878, K. pneumoniae ATCC 700603, S. aureus MRSA (WK7-2), E. faecalis ATCC 29212 and P. aeruginosa PAO1 by using the broth microdilution method. ^20 Bacteria were grown to mid-logarithmic phase in MHB at 37° C. […] Following incubation over-night, each sample was diluted, plated on TSA, and incubated at 37° C. for 24 h to count the number of colonies. All experiments were performed in three independent replicates.

[1] = tested on: P. aeruginosa wild-type PAO1
Method: as §1

E. faecalis ATCC 29212 = tested on: E. faecalis ATCC 29212
Method: as §1

in vitro = conditions: 25% fetal bovine serum
Method: To determine its proteolytic stability, it was assessed whether (ri)-r(P)ApoBS^Pro was less susceptible to serum proteases compared to its parent peptide r(P)ApoBS^Pro.
Stability assay. The resistance to enzymatic degradation assay was performed according to the method described by Powell et al. ^72 Briefly, peptides at 2 mg mL^−1 were exposed to a solution of 25% fetal bovine serum in water. Aliquots were collected after 0.5, 1, 2, and 4 h and 10 μL of trifluoroacetic acid was added to them while the samples were on ice for 10 min. The enzymatic degradation of peptides was followed by reverse-phase high performance liquid chromatography coupled to mass spectrometry (RP-HPLC/ESI-MS). The percentage of remaining peptide was calculated by integrating the area under the curve related to the peptide at time point zero.
where AUCX is the area under the curve of the peak related to the peptide after t h (t=0.5, 1, 2, and 4 h), and AUC0 is the area under the curve of the peak related to the peptide at the beginning of the experiment. Three independent experimental replicates were performed, as previously described. ^73

S. aureus ATCC 12600 [2] = assay: microbe, parasite or virus in culture; conditions: for MIC values: conventional antimicrobial agents, Staphylococcus aureus ATCC 12600
Method: as §1

A. baumannii ATCC 17878 [3] = assay: microbe, parasite or virus in culture; conditions: for MIC values: conventional antimicrobial agents, Acinetobacter baumannii ATCC 17878
Method: as §1

[4] = tested on: K. pneumoniae ATCC 700603; assay: microbe, parasite or virus in culture; conditions: for MIC values: conventional antimicrobial agents, Klebsiella pneumoniae ATCC 700603
Method: as §1

[5] = tested on: S. epidermidis ATCC 35984; assay: microbe, parasite or virus in culture; conditions: for MIC values: conventional antimicrobial agents, Staphylococcus epidermidis ATCC 35984
Method: as §1

A. baumannii ATCC 17878 [6] = assay: Bacterial resistance development assay (30 days); format: cell-based, Acinetobacter baumannii; conditions: for change in MIC (resistance development): 30 days of treatment; for MIC: Acinetobacter baumannii
Method: (§2) Experiments were performed to assess whether prolonged exposure to ApoB-derived encrypted peptides led to the evolution of resistant phenotypes, since classical AMPs are known to be less likely to trigger bacterial resistance than standard antibiotics. ^41 The Gram-negative bacterial pathogen A. baumannii ATCC 17878, and the Gram-positives S. epidermidis ATCC 35984, and S. aureus ATCC 12600 were longitudinally treated with r(P)ApoBL^Pro, r(P)ApoBL^Ala, and r(P)ApoBS^Pro. Control sample groups were treated with the antibiotics colistin, gentamicin, and mupirocin, selected based on their distinct mechanisms of action, the former destabilizing the bacterial extracellular membrane and the latter acting on intracellular targets. […] A. baumannii resistance towards colistin increased by up to 8-fold, whereas S. epidermidis resistance to gentamicin and mupirocin increased by up to 16- and 8-fold, respectively (FIG. 3C). […] For example, both colistin-resistant A. baumannii ATCC 17878 and gentamicin-resistant S. epidermidis ATCC 35984 presented wrinkled borders (FIG. 2E) as opposed to the smooth colonies' characteristic of their morphology at the beginning of the experiment (FIG. 2E).
(§3) Bacterial resistance development assay. S. epidermidis ATCC 35984, S. aureus ATCC 12600 and A. baumannii ATCC 17878 bacterial strains were exposed to colistin, gentamicin, mupirocin, r(P)ApoBL^Pro, r(P)ApoBL^Ala or r(P)ApoBS^Pro. Once, we detected the MIC values for each peptide or antibiotic against the bacterial strains tested, we transferred bacterial cells that survived the exposure at a sub-inhibitory (MIC/2) concentration, and they were re-grown and re-exposed to the respective peptide or antibiotic. ^20 The treatment was repeated for 30 days. Strains that developed resistance to antibiotics presented higher MICs at subsequent passages and the cells from the last passage were isolated and stored for scanning electron microscopy analyses.

[7] = tested on: S. epidermidis ATCC 35984; assay: Bacterial resistance development assay (30 days); format: cell-based, Staphylococcus epidermidis; conditions: for change in MIC (resistance development): S. epidermidis, 30 days of treatment; for MIC: Staphylococcus epidermidis
Method: as §2, §3

S. aureus ATCC 12600 [8] = assay: Bacterial resistance development assay (30 days); format: cell-based, Staphylococcus aureus
Method: as §2, §3

[9] = Staphylococcus aureus, ATCC12600, read-out: MIC values
[10] = Acinetobacter baumannii, ATCC17878, read-out: MIC values
[11] = Klebsiella pneumoniae, ATCC700603, read-out: MIC values
[12] = Staphylococcus epidermidis, ATCC35984, read-out: MIC values

PHVALKAGKLKFIIPSPKRPVKLLSGGNTLHLVSTTKT [r(P)ApoBL^Ala]
MIC (S. aureus MRSA (WKZ-2)): 10 µM | MIC [1]: 2.5 µM | MIC (E. faecalis ATCC 29212): 10 µM | stability in the presence of serum (in vitro): degraded within minutes | MIC (S. aureus ATCC 12600 [2]; ATCC 12600): 20 µM | MIC (A. baumannii ATCC 17878 [3]; ATCC 17878): 2.5 µM | MIC ([4]; ATCC 700603): 5 µM | MIC ([5]; ATCC 35984): 10 µM

Colistin
change in MIC (resistance development) (A. baumannii ATCC 17878 [6]; A. baumannii): up to 8 fold | MIC after 30 days of treatment (A. baumannii ATCC 17878 [6]; A. baumannii): 25 µg/mL | MIC after 30 days of treatment (A. baumannii ATCC 17878 [6]; A. baumannii, listed as colistin): 21.6 µM | MIC at start of resistance study (A. baumannii ATCC 17878 [6]; A. baumannii, before prolonged treatment): 3.12 μg mL^−1 and 2.7 μmol L^−1 | change in MIC (resistance development) [7]: No significant resistance development | MIC values (S. aureus ATCC 12600 [2]): 12.5 µg/mL | MIC values (A. baumannii ATCC 17878 [3]): 3.12 µg/mL | MIC values [4]: 3.12 µg/mL | MIC values [5]: 3.12 µg/mL

O=C(O)CN(CCN(CC(=O)O)CC(=O)O)CC(=O)O [EDTA]
MIC values (S. aureus ATCC 12600 [2]): 24.5 µg/mL (≈ 83.8 µM) | MIC values (A. baumannii ATCC 17878 [3]): 24.5 µg/mL (≈ 83.8 µM) | MIC values [4]: 49 µg/mL (≈ 168 µM) | MIC values [5]: 196 µg/mL (≈ 671 µM)

CC[C@H]1OC(=O)[C@H](C)[C@@H](O[C@H]2C[C@@](C)(OC)[C@@H](O)[C@H](C)O2)[C@H](C)[C@@H](O[C@@H]2O[C@H](C)C[C@H](N(C)C)[C@H]2O)[C@](C)(O)C[C@@H](C)C(=O)[C@H](C)[C@@H](O)[C@]1(C)O [Erytromycin]
MIC (S. aureus ATCC 12600 [2]; [9]): 15 µg/mL | MIC (A. baumannii ATCC 17878 [3]; [10]): 125 µg/mL | MIC [4, 11]: 7.8 µg/mL | MIC values [5]: Resistant

Polymyxin B
MIC values (S. aureus ATCC 12600 [2]): 12.5 µg/mL | MIC values (A. baumannii ATCC 17878 [3]): 6.25 µg/mL | MIC values [4]: 6.25 µg/mL | MIC values [5]: 3.12 µg/mL

CCC[C@@H]1C[C@@H](C(=O)N[C@@H]([C@H]2O[C@H](SC)[C@H](O)[C@@H](O)[C@H]2O)[C@H](C)Cl)N(C)C1 [Clindamycin]
MIC (S. aureus ATCC 12600 [2]; [9]): 0.5 µg/mL | MIC (A. baumannii ATCC 17878 [3]; [10]): 62.5 µg/mL | MIC [4, 11]: 125 µg/mL

Gentamicin
change in MIC (resistance development) (A. baumannii ATCC 17878 [6]; A. baumannii): did not change | change in MIC (resistance development) [7]: up to 16 fold | MIC values (S. aureus ATCC 12600 [2]): 1 µg/mL | MIC values (A. baumannii ATCC 17878 [3]): 0.25 µg/mL | MIC values [4]: 0.5 µg/mL | MIC values [5]: 2 µg/mL

CC[C@@H](C)[C@@H](NC(=O)[C@H]1CCCN1C(=O)[C@@H](CO)NC(=O)[C@H]1CCCN1C(=O)[C@@H](CCCCN)NC(=O)[C@@H](CCCNC(=N)N)NC(=O)[C@H]1CCCN1C(=O)[C@H](NC(=O)[C@@H](CCCCN)NC(=O)[C@@H](CC(C)C)NC(=O)[C@@H](CC(C)C)NC(=O)[C@@H](CO)NC(=O)CN)C(C)C)C(=O)N[C@@H](C(=O)N[C@H](Cc1ccccc1)C(=O)N[C@H](CCCCN)C(=O)N[C@H](CC(C)C)C(=O)N[C@H](CCCCN)C(=O)NCC(=O)N1CCC[C@@H]1C(=O)N[C@H](CCCCN)C(=O)N[C@H](CC(C)C)C(=O)N[C@H](C)C(=O)N[C@@H](C(=O)N[C@H](Cc1c[nH]cn1)C(=O)N1CCC[C@@H]1C(=O)O)C(C)C)[C@H](C)CC [(ri)-r(P)ApoBS^Pro] (H-G[dS][dL][dL][dK][dV][dP][dR][dK][dP][dS][dP][dI][dI][dF][dK][dL][dK]G[dP][dK][dL][dA][dV][dH][dP]-OH; N-terminus and C-terminus assumed)
MIC (S. aureus MRSA (WKZ-2)): 10 µM (≈ 28.2 µg/mL) | MIC [1]: 10 µM (≈ 28.2 µg/mL) | remaining at 4 h, 2 mg mL^-1 (in vitro; bovine): ~50% | MIC (S. aureus ATCC 12600 [2]; ATCC 12600): 20 µM | MIC ([5]; ATCC 35984): 10 µM

CN[C@H](CC(C)C)C(=O)N[C@H]1C(=O)N[C@@H](CC(N)=O)C(=O)N[C@H]2C(=O)N[C@H]3C(=O)N[C@H](C(=O)N[C@H](C(=O)O)c4cc(O)cc(O)c4-c4cc3ccc4O)[C@H](O)c3ccc(c(Cl)c3)Oc3cc2cc(c3O[C@@H]2O[C@H](CO)[C@@H](O)[C@H](O)[C@H]2O[C@H]2C[C@](C)(N)[C@H](O)[C@H](C)O2)Oc2ccc(cc2Cl)[C@H]1O [Vancomycin]
MIC (S. aureus ATCC 12600 [2]; [9]): 0.78 µg/mL | MIC (A. baumannii ATCC 17878 [3]; [10]): 50 µg/mL | MIC [4, 11]: 50 µg/mL | MIC [5, 12]: 1.56 µg/mL

C/C(=C\C(=O)OCCCCCCCCC(=O)O)C[C@@H]1OC[C@H](C[C@@H]2O[C@H]2[C@@H](C)[C@H](C)O)[C@@H](O)[C@H]1O [mupirocin]
MIC before increase (S. aureus ATCC 12600 [8]; before the increase): 0.024 μg mL^−1 and 0.048 μmol L^−1 | MIC after increase (S. aureus ATCC 12600 [8]; between days 15 and 21 of treatment): 0.19 μg mL^−1 and 0.38 μmol L^−1 | change in MIC (resistance development) (S. aureus ATCC 12600 [8]; prolonged treatment): 8 fold | MIC (A. baumannii ATCC 17878 [6]; ATCC17878, read-out: MIC after 30 days of treatment): 400 µg/mL and 800 µM | MIC (A. baumannii ATCC 17878 [6]; ATCC17878, read-out: MIC at start of resistance study): 100 µg/mL and 200 µM | change in MIC (resistance development) [7]: up to 8 fold | MIC ([7]; ATCC35984, read-out: MIC after prolonged treatment): 0.012 µg/mL and 0.024 µM | MIC ([7]; ATCC35984, read-out: MIC at start of resistance study): 0.0015 µg/mL and 0.003 µM

CC(=O)O[C@H]1C[C@@]2(C)[C@@H](C[C@@H](O)[C@H]3[C@@]4(C)CC[C@@H](O)[C@@H](C)[C@@H]4CC[C@@]32C)/C1=C(\CCC=C(C)C)C(=O)O [Fusidic acid]
MIC (S. aureus ATCC 12600 [2]; [9]): 0.06 µg/mL | MIC (A. baumannii ATCC 17878 [3]; [10]): 2.25 µg/mL | MIC values [4]: Resistant | MIC [5, 12]: 0.06 µg/mL

PHVALKPGKLKFIIPSPKRPVKLLSGGNTLHLVSTTKT [r(P)ApoBL^Pro]
MIC (S. aureus MRSA (WKZ-2)): 20 µM | MIC [1]: 5 µM | MIC (E. faecalis ATCC 29212): 20 µM | stability in the presence of serum (in vitro): degraded within minutes | MIC (S. aureus ATCC 12600 [2]; ATCC 12600): 20 µM | MIC (A. baumannii ATCC 17878 [3]; ATCC 17878): 5 µM | MIC ([4]; ATCC 700603): 10 µM | MIC ([5]; ATCC 35984): 10 µM

O=C(OOC(=O)c1ccccc1)c1ccccc1 [Benzoyl Peroxide]
MIC (S. aureus ATCC 12600 [2]; [9]): 16 µg/mL | MIC (A. baumannii ATCC 17878 [3]; [10]): 32 µg/mL | MIC values [4]: Resistant | MIC [5, 12]: 16 µg/mL
